Results published in article PMC10770148, “Transport and inhibition mechanism for VMAT2-mediated synaptic vesicle loading of monoamines” (Cell Research, 2024).
Like-named read-outs stand apart in the source and are kept apart here.

Legend:
VMAT2 and VMAT1 = tested on: VMAT2 and VMAT1; parameters: method as in PMID 8643547; conditions: cited from earlier work
VMAT2_WT = VMAT2_WT (Homo sapiens, UniProt Q05940); test: MST binding to WT VMAT2
Procedure: (§1) The eGFP-tagged full-length VMAT2 or VMAT2 mutants was purified by size exclusion chromatography in the assay buffer (50 mM HEPES, 150 mM NaCl, 0.01% DDM, 0.001% CHS, pH 7.4) as described but without cleavage. Peak fractions were pooled and diluted to 40 nM. […] For MST measurements, a series of 16 sequential 1:1 dilutions were prepared using assay buffer for each ligand, and each ligand dilution was mixed 1:1 with diluted protein to final protein concentration of 20 nM and final ligand concentrations in the μM to nM range. The samples were incubated for 10 min at room temperature, and then loaded into Standard Monolith Capillaries (Cat# MO-K022, NanoTemper Technologies). Measurements were carried out with a Monolith NT.115 device at 80% LED power and 40% MST power. Kd was determined using the MO. Affinity Analysis software (version 2.3, NanoTemper Technologies, Germany) is with the Kd fit function. Capillaries displaying aggregation or adsorption were excluded. Data of at least three independently pipetted measurements were analyzed and Kd is expressed as mean ± SEM. Binding curves were plotted by GraphPad Prism Prism 9.5.1 (GraphPad Software Inc., San Diego, USA).

VMAT2 Y433F = molecular target: T1, VMAT2 Y433F (Homo sapiens, UniProt Q05940, Y433F); test: MST binding to VMAT2 Y433F mutant; conditions: Y433F variant, mean ± SEM
T1 construct: The eGFP-tagged full-length VMAT2 or VMAT2 mutants was purified by size exclusion chromatography; made in house; host or cells: Expi293 cells
Procedure: as §1

VMAT2 L37F = molecular target: T2, VMAT2 L37F (Homo sapiens, UniProt Q05940, L37F); test: MST binding to VMAT2 L37F mutant
T2 construct: The eGFP-tagged full-length VMAT2 or VMAT2 mutants was purified by size exclusion chromatography; made in house; host or cells: Expi293 cells
Procedure: as §1

VMAT2 V232L = molecular target: T3, VMAT2 V232L (Homo sapiens, UniProt Q05940, V232L); test: MST binding to VMAT2 V232L mutant; conditions: V232L variant, mean ± SEM
T3 construct: The eGFP-tagged full-length VMAT2 or VMAT2 mutants was purified by size exclusion chromatography; made in house; host or cells: Expi293 cells
Procedure: as §1

VMAT2 I308V = molecular target: T4, VMAT2 I308V (Homo sapiens, UniProt Q05940, I308V); test: MST binding to VMAT2 I308V mutant; conditions: I308V variant, mean ± SEM
T4 construct: The eGFP-tagged full-length VMAT2 or VMAT2 mutants was purified by size exclusion chromatography; made in house; host or cells: Expi293 cells
Procedure: as §1

VMAT1_WT = molecular target: T5, VMAT1_WT (Homo sapiens, UniProt P54219); test: MST binding to WT VMAT1
T5 sequence (P54219 1-525): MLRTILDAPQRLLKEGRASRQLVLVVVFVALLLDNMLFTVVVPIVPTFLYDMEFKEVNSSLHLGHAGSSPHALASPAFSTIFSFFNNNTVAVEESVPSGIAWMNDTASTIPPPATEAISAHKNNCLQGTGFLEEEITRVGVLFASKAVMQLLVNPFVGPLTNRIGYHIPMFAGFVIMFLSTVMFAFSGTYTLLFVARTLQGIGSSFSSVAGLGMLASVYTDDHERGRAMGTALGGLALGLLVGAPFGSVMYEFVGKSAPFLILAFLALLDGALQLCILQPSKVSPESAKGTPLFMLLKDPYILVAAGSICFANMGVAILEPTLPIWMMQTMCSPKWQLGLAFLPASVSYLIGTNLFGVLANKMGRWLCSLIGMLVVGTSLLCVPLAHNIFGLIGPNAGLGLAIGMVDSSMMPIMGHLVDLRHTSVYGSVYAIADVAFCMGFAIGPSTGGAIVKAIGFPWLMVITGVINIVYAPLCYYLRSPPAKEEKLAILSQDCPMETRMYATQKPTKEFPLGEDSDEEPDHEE

VMAT2 E312A = test: MST binding to VMAT2 E312A mutant; parameters: species or system human; conditions: E312A versus WT, MST (Fig. S9a)
Procedure: as §1

VMAT2 N34A = test: MST binding to VMAT2 N34A mutant; parameters: species or system human; conditions: N34A versus WT
Procedure: as §1

VMAT2 W318A = molecular target: T6, VMAT2 W318A (Homo sapiens, UniProt Q05940, W318A); test: MST binding to VMAT2 W318A mutant; conditions: MST (Fig. S9a), versus WT
T6 construct: The eGFP-tagged full-length VMAT2 or VMAT2 mutants was purified by size exclusion chromatography; made in house; host or cells: Expi293 cells
Procedure: as §1

[1] = molecular target: T7, VMAT2 Leu124 and Leu125 mutant (Homo sapiens, UniProt Q05940, L124R/L125R); test: MST binding to VMAT2 Leu124/Leu125 mutant; conditions: MST (Fig. S9a), versus WT
T7 construct: The eGFP-tagged full-length VMAT2 or VMAT2 mutants was purified by size exclusion chromatography; made in house; host or cells: Expi293 cells
Procedure: as §1

VMAT2 = tested on: VMAT2; parameters: method as in PMID 23506877; conditions: cited from earlier work
VMAT1 = tested on: VMAT1; parameters: method as in PMID 23506877; conditions: cited from earlier work

T1 sequence (Q05940 whole entry Y433F): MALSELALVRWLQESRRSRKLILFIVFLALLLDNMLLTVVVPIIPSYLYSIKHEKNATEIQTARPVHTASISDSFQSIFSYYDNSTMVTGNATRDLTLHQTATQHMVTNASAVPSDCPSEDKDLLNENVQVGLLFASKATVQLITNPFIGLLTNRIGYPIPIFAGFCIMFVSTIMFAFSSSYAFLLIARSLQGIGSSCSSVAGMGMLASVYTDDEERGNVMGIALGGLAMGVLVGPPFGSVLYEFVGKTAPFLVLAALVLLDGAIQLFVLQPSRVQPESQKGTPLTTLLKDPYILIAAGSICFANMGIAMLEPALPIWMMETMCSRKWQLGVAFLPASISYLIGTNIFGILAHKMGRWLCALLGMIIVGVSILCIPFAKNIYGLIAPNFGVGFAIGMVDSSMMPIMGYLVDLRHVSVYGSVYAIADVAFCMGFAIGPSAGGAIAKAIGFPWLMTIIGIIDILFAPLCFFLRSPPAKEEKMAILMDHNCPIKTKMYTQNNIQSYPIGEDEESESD
T2 sequence (Q05940 whole entry L37F): as the sequence (Q05940 whole entry Y433F) above, with L37F, F433Y counted along it
VMAT2_WT, sequence (Q05940 whole entry): as the sequence (Q05940 whole entry Y433F) above, with F433Y counted along it
T4 sequence (Q05940 whole entry I308V): as the sequence (Q05940 whole entry Y433F) above, with I308V, F433Y counted along it
T6 sequence (Q05940 whole entry W318A): as the sequence (Q05940 whole entry Y433F) above, with W318A, F433Y counted along it
T3 sequence (Q05940 whole entry V232L): as the sequence (Q05940 whole entry Y433F) above, with V232L, F433Y counted along it
T7 sequence (Q05940 whole entry L124R/L125R): as the sequence (Q05940 whole entry Y433F) above, with L124R, L125R, F433Y counted along it

O=C(c1ccc(F)cc1)C1CCN(CCn2c(=O)[nH]c3ccccc3c2=O)CC1 [ketanserin]
affinity or preference VMAT2 versus VMAT1 (VMAT2 and VMAT1): slight preference for VMAT2 over VMAT1

COC(=O)[C@H]1[C@H]2C[C@@H]3c4[nH]c5cc(OC)ccc5c4CCN3C[C@H]2C[C@@H](OC(=O)c2cc(OC)c(OC)c(OC)c2)[C@@H]1OC [RES, reserpine]
affinity or preference VMAT2 versus VMAT1 (VMAT2 and VMAT1): slight preference for VMAT2 over VMAT1

COc1cc2c(cc1OC)C1CC(=O)C(CC(C)C)CN1CC2 (stereo not drawn) [TBZ, tetrabenazine]
Kd (VMAT2_WT; MST, VMAT2 WT, mean ± SEM, n = 3–4, read-out: Kd): 60 nM
Kd (VMAT2 Y433F): 437 ± 141 nM
reduction of TBZ binding by L37F variant (VMAT2 L37F; L37F versus WT VMAT2, MST): 45 fold
Kd (VMAT2 L37F; MST, L37F variant, mean ± SEM): 2780 ± 1080 nM
Kd (VMAT2 V232L): 22900 ± 20000 nM
Kd (VMAT2 I308V): 168 ± 103 nM
difference in affinity between VMAT2 and VMAT1 (VMAT1_WT; 60 nM vs 9.38 μM): ~150 fold
Kd (VMAT1_WT; VMAT1 WT, mean ± SEM): 9380 nM
decrease in TBZ binding affinity, E312A mutant (VMAT2 E312A): 8 fold
reduction in TBZ binding affinity, N34A substitution (VMAT2 N34A): 7 fold
TBZ binding, W318A mutant (VMAT2 W318A): substantial reduction in TBZ binding
TBZ association, Leu124 and Leu125 perturbations [1]: largely diminished TBZ association
IC50 difference VMAT2 versus VMAT1 (VMAT1; 0.3 μM vs 3 μM): 10 fold
IC50 (VMAT1; VMAT1): 3000 nM
affinity or preference VMAT2 versus VMAT1 (VMAT2 and VMAT1): selectively target VMAT2

NCCc1c[nH]c2ccc(O)cc12 [5-HT, serotonin]
Kd (VMAT2_WT): 3300 ± 1010 nM
Kd (VMAT2 Y433F): 3440 ± 1130 nM

NCCc1c[nH]cn1 [histamine]
higher affinity of VMAT2 than VMAT1 (VMAT2 and VMAT1; substrates): 30 fold
